Article PMC5584945, “Evaluation of robenidine analog NCL195 as a novel broad-spectrum antibacterial agent” (PLoS ONE, 2017)
Converted amounts (≈) assume the structure as drawn.

Tests used:
[1] = test system: S. pneumoniae; test: MIC, broth micro-dilution (CLSI); format: cell-based, Streptococcus pneumoniae; conditions: for MIC90 / MIC / MIC50: Streptococcus pneumoniae
[2] = test system: S. aureus Xen29; test: Point of resistance assay (serial passage)
[3] = test system: MCF7; test: In vitro cytotoxicity, WST-1; format: cell-based; conditions: Homo sapiens, 24 h exposure, read-out: IC50 values ± SEM
Excerpt: (§1) In order to ensure minimal off target mammalian cell cytotoxicity, we assayed NCL812, NCL195 and NCL219 for in vitro cytotoxicity using a panel of adherent mammalian cell lines: Caco-2 (human colorectal adenocarcinoma cell line), HEL 299 (non-cancerous human lung fibroblast cell line), Hep G2 (human hepatocellular carcinoma cell line), MDBK (normal bovine kidney cell line) and MCF7 (human mammary gland adenocarcinoma cell line). Cell lines were maintained in Dulbecco’s Modified Eagle’s Medium (DMEM; […] After 24 h incubation, media was removed, washed once with medium without antibiotics and fresh medium supplemented with 10% (vol/vol) FBS was added. […] Following exposure for 24 h, WST-1 reagent was added to each well at a final concentration of 10%. […] The IC50 value for each compound against each cell line was determined via non-linear regression (three parameters) using GraphPad Prism v6 software. The robustness of assays was confirmed with selected cell lines (Hep G2 and MDBK) seeded onto a 96–well Microwell Nunclon Delta Surface plate (Thermo Scientific Nunc; Cat No: 136101) at 5 × 10^4 cells per well.

[4] = test system: Hep G2; test: In vitro cytotoxicity, WST-1; format: cell-based; conditions: Homo sapiens, HepG2; 24 h exposure; read-out: IC50 values ± SEM
Excerpt: as §1

[5] = test system: HEL 299; test: In vitro cytotoxicity, WST-1; format: cell-based; conditions: Homo sapiens, 24 h exposure, read-out: IC50 values ± SEM
Excerpt: as §1

[6] = test system: Caco-2; test: In vitro cytotoxicity, WST-1; format: cell-based; conditions: Homo sapiens, 24 h exposure, read-out: IC50 values ± SEM
Excerpt: as §1

[7] = test system: Hep G2; test: Real-time cell viability, RealTime-Glo MT; format: cell-based, human; conditions: 2 or 8 μg/ml, up to 20 h post-treatment
[8] = S1 Table isolates, 5% FBS + 3% washed RBC
[9] = ATCC6303, ATCC 6303 (serotype 3), 5% FBS + 3% washed RBC
[10] = D39/D39LUX (serotype 2), 5% FBS
[11] = D39/D39LUX (serotype 2), 10% FBS

Structure (SMILES): CCCCCCCCCC(=O)N[C@@H](Cc1c[nH]c2ccccc12)C(=O)N[C@H](CC(N)=O)C(=O)N[C@@H](CC(=O)O)C(=O)N[C@@H]1C(=O)NCC(=O)N[C@@H](CCCN)C(=O)N[C@@H](CC(=O)O)C(=O)N[C@H](C)C(=O)N[C@@H](CC(=O)O)C(=O)NCC(=O)N[C@H](CO)C(=O)N[C@@H]([C@H](C)CC(=O)O)C(=O)N[C@@H](CC(=O)c2ccccc2N)C(=O)O[C@@H]1C [Daptomycin, daptomycin]
- MIC range [1, 8]: 0.125 to 0.5 µg/mL
- MIC90 ([1]; 21 isolates): 0.5 µg/mL (≈ 0.309 µM)
- MIC ([1]; A66.1 (serotype 3), 5% FBS): 0.25 µg/mL (≈ 0.154 µM)
- MIC [1, 9]: 0.25 µg/mL
- MIC [1, 10]: 0.25 µg/mL (≈ 0.154 µM)
- MIC [1, 11]: 0.25 µg/mL (≈ 0.154 µM)
- MIC ([1]; EF3030 (serotype 19F), 5% FBS): 0.25 µg/mL (≈ 0.154 µM)
- MIC ([1]; L82016 (serotype 6B), 5% FBS): 0.25 µg/mL (≈ 0.154 µM)
- MIC ([1]; P9 (serotype 6A), 5% FBS): 0.25 µg/mL (≈ 0.154 µM)
- MIC ([1]; P21 (serotype 3), 5% FBS): 0.25 µg/mL (≈ 0.154 µM)
- MIC50 ([1]; S1 Table isolates, 5% FBS): 0.25 µg/mL (≈ 0.154 µM)
- MIC90 ([1]; S1 Table isolates, 5% FBS): 0.25 µg/mL (≈ 0.154 µM)
- MIC ([1]; TIGR4 (serotype 4), 5% FBS): 0.25 µg/mL (≈ 0.154 µM)
- MIC ([1]; WCH16 (serotype 6A), 5% FBS): 0.25 µg/mL (≈ 0.154 µM)
- MIC ([1]; WCH43 (serotype 4), 5% FBS): 0.25 µg/mL (≈ 0.154 µM)
- MIC ([1]; WCH46 (serotype 4), 5% FBS): 0.125 µg/mL (≈ 0.0771 µM)
- MIC ([1]; WCH57 (serotype 8), 5% FBS): 0.25 µg/mL (≈ 0.154 µM)
- MIC ([1]; WCH77 (serotype 5), 5% FBS): 0.5 µg/mL (≈ 0.309 µM)
- MIC ([1]; WCH86 (serotype 4), 5% FBS): 0.125 µg/mL (≈ 0.0771 µM)
- MIC ([1]; WCH89 (serotype 7), 5% FBS): 0.5 µg/mL (≈ 0.309 µM)
- MIC ([1]; WCH92 (serotype 4), 5% FBS): 0.125 µg/mL (≈ 0.0771 µM)
- MIC ([1]; WCH137 (serotype 6A), 5% FBS): 0.125 µg/mL (≈ 0.0771 µM)
- MIC ([1]; WCH158 (serotype 19F), 5% FBS): 0.125 µg/mL (≈ 0.0771 µM)
- MIC ([1]; WCH184 (serotype 19F), 5% FBS): 0.25 µg/mL (≈ 0.154 µM)
- MIC ([1]; WCH211 (serotype 11), 5% FBS): 0.25 µg/mL (≈ 0.154 µM)
- MIC ([1]; WU2 (serotype 3), 5% FBS): 0.125 µg/mL (≈ 0.0771 µM)
- Resistance (fold MIC) over serial passage ([2]; by day 12 of the serial passage): 8 ×MIC
- Day of serial passage by which resistance developed ([2]; daily serial passage): 5 days

Structure (SMILES): C/C(=N\NC(=N)N/N=C(\C)c1ccc(C(C)(C)C)cc1)c1ccc(C(C)(C)C)cc1 [NCL219, (E)-N'-((E)-1-(4-(tert-butyl)phenyl)ethylidene)-2-(1-(4-(tert-butyl)phenyl)ethylidene)hydrazine-1-carboximidhydrazide]
- MIC range ([1]; 21 isolates): 1 to 8 µg/mL
- MIC range [1, 8]: 1 to 8 µg/mL
- MIC range ([1]; S1 Table isolates, 10% FBS + 3% washed RBC): 1 to 8 µg/mL
- MIC ([1]; A66.1 (serotype 3), 5% FBS): 4 µg/mL (≈ 9.86 µM)
- MIC ([1]; A66.1 (serotype 3), 10% FBS): 4 µg/mL (≈ 9.86 µM)
- MIC [1, 9]: 1 µg/mL
- MIC ([1]; ATCC6303, ATCC 6303 (serotype 3), 10% FBS + 3% washed RBC): 1 µg/mL
- MIC [1, 10]: 4 µg/mL (≈ 9.86 µM)
- MIC [1, 11]: 4 µg/mL (≈ 9.86 µM)
- MIC ([1]; L82016 (serotype 6B), 5% FBS): 2 µg/mL (≈ 4.93 µM)
- MIC ([1]; L82016 (serotype 6B), 10% FBS): 2 µg/mL (≈ 4.93 µM)
- MIC ([1]; P9 (serotype 6A), 5% FBS): 4 µg/mL (≈ 9.86 µM)
- MIC ([1]; P9 (serotype 6A), 10% FBS): 4 µg/mL (≈ 9.86 µM)
- MIC ([1]; P21 (serotype 3), 5% FBS): 4 µg/mL (≈ 9.86 µM)
- MIC ([1]; P21 (serotype 3), 10% FBS): 4 µg/mL (≈ 9.86 µM)
- MIC50 ([1]; S1 Table isolates, 5% FBS): 4 µg/mL (≈ 9.86 µM)
- MIC90 ([1]; S1 Table isolates, 5% FBS): 4 µg/mL (≈ 9.86 µM)
- MIC50 ([1]; S1 Table isolates, 10% FBS): 4 µg/mL (≈ 9.86 µM)
- MIC90 ([1]; S1 Table isolates, 10% FBS): 8 µg/mL (≈ 19.7 µM)
- MIC ([1]; TIGR4 (serotype 4), 5% FBS): 2 µg/mL (≈ 4.93 µM)
- MIC ([1]; TIGR4 (serotype 4), 10% FBS): 2 µg/mL (≈ 4.93 µM)
- MIC ([1]; WCH16 (serotype 6A), 5% FBS): 2 µg/mL (≈ 4.93 µM)
- MIC ([1]; WCH16 (serotype 6A), 10% FBS): 2 µg/mL (≈ 4.93 µM)
- MIC ([1]; WCH43 (serotype 4), 5% FBS): 2 µg/mL (≈ 4.93 µM)
- MIC ([1]; WCH43 (serotype 4), 10% FBS): 2 µg/mL (≈ 4.93 µM)
- MIC ([1]; WCH46 (serotype 4), 5% FBS): 4 µg/mL (≈ 9.86 µM)
- MIC ([1]; WCH46 (serotype 4), 10% FBS): 4 µg/mL (≈ 9.86 µM)
- MIC ([1]; WCH57 (serotype 8), 5% FBS): 4 µg/mL (≈ 9.86 µM)
- MIC ([1]; WCH57 (serotype 8), 10% FBS): 4 µg/mL (≈ 9.86 µM)
- MIC ([1]; WCH86 (serotype 4), 5% FBS): 4 µg/mL (≈ 9.86 µM)
- MIC ([1]; WCH86 (serotype 4), 10% FBS): 4 µg/mL (≈ 9.86 µM)
- MIC ([1]; WCH89 (serotype 7), 5% FBS): 8 µg/mL (≈ 19.7 µM)
- MIC ([1]; WCH89 (serotype 7), 10% FBS): 4 µg/mL (≈ 9.86 µM)
- MIC ([1]; WCH92 (serotype 4), 5% FBS): 4 µg/mL (≈ 9.86 µM)
- MIC ([1]; WCH92 (serotype 4), 10% FBS): 4 µg/mL (≈ 9.86 µM)
- MIC ([1]; WCH137 (serotype 6A), 5% FBS): 4 µg/mL (≈ 9.86 µM)
- MIC ([1]; WCH137 (serotype 6A), 10% FBS): 4 µg/mL (≈ 9.86 µM)
- MIC ([1]; WCH158 (serotype 19F), 5% FBS): 8 µg/mL (≈ 19.7 µM)
- MIC ([1]; WCH158 (serotype 19F), 10% FBS): 8 µg/mL (≈ 19.7 µM)
- MIC ([1]; WCH184 (serotype 19F), 5% FBS): 2 µg/mL (≈ 4.93 µM)
- MIC ([1]; WCH184 (serotype 19F), 10% FBS): 2 µg/mL (≈ 4.93 µM)
- MIC ([1]; WCH211 (serotype 11), 5% FBS): 4 µg/mL (≈ 9.86 µM)
- MIC ([1]; WCH211 (serotype 11), 10% FBS): 4 µg/mL (≈ 9.86 µM)
- MIC ([1]; WU2 (serotype 3), 5% FBS): 4 µg/mL (≈ 9.86 µM)
- MIC ([1]; WU2 (serotype 3), 10% FBS): 4 µg/mL (≈ 9.86 µM)
- IC50 [3]: > 128 µg/mL
- IC50 [4]: 7.1 ± 0.1 µg/mL (≈ 17.5 µM)
- IC50 [5]: 21.2 ± 0.2 µg/mL (≈ 52.3 µM)
- IC50 [6]: 7.5 ± 0.1 µg/mL (≈ 18.5 µM)
- Effect on cell viability (real-time) [7]: had a demonstrable effect on viability at 2 μg/ml
